Patent EP4682145A1, “BENZOHETEROCYCLIC COMPOUND, AND PREPARATION METHOD THEREFOR AND USE THEREOF” (Cascade Pharmaceuticals, Inc., priority 2023, dated 2024)

Target: T1, human FFAR1 (GPR40) (Homo sapiens, UniProt O14842)
T1 construct: Flag; expressed in transfected cells; host or cells: HEK293T
Test: NFAT-RE-based reporter gene activity assay (Dual-Glo luciferase) for GPR40 agonistic activity in co-transfected HEK293T cells
Type: cell-based
Details: 4-hour treatment; for Efficacy (%): class symbols
How it was run: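 Agonism read as NFAT-RE-driven firefly luciferase over Renilla control (Dual-Glo) after 4 h compound exposure, top concentration 1 µM, 10 half-log steps.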

T1 sequence (O14842 whole entry): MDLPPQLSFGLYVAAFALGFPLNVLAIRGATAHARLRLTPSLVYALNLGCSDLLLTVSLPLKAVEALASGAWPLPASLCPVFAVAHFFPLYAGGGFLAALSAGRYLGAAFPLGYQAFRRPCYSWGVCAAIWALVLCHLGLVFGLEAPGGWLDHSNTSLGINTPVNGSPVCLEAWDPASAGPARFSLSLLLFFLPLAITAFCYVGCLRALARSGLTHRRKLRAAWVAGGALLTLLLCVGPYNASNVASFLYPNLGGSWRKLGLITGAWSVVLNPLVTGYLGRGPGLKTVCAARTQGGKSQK

## COc1cccc(N2CCC(c3oc4cc([C@@H](CC(=O)O)C5CC5)ccc4c3C(=O)Nc3cc(C)ccc3OC)CC2)c1 [Compound 272]
  EC50: 10 to 100 nM
  Efficacy (%): ††† (Efficacy (%) > 150)

## COc1cccc(N2CCC(c3oc4cc([C@@H](CC(=O)O)C5CC5)ccc4c3C(=O)Nc3cc(C)ccc3Br)CC2)c1 [Compound 273]
  EC50: ≤ 10 nM
  Efficacy (%): †† (150 ≥ Efficacy (%) > 100)

## COc1cccc(N2CCC(c3oc4cc([C@@H](CC(=O)O)C5CC5)ccc4c3C(=O)N(C)c3cc([N+](=O)[O-])ccc3Cl)CC2)c1 [Compound 274]
  EC50: 100 to 500 nM
  Efficacy (%): †† (150 ≥ Efficacy (%) > 100)

## COc1cccc(N2CCC(c3oc4cc([C@@H](CC(=O)O)C5CC5)ccc4c3C(=O)Nc3cc(C(F)(F)F)ccc3Cl)CC2)c1 [Compound 275]
  EC50: 10 to 100 nM
  Efficacy (%): ††† (Efficacy (%) > 150)

## COc1cccc(N2CCC(c3oc4cc([C@@H](CC(=O)O)C5CC5)ccc4c3C(=O)Nc3cc([N+](=O)[O-])ccc3Cl)CC2)c1 [Compound 276]
  EC50: 10 to 100 nM
  Efficacy (%): †† (150 ≥ Efficacy (%) > 100)

## COc1cccc(N2CCC(c3oc4cc([C@@H](CC(=O)O)C5CC5)ccc4c3C(=O)Nc3cc(OC(F)(F)F)ccc3Cl)CC2)c1 [Compound 277]
  EC50: > 500 nM
  Efficacy (%): ††††

## CCc1ccc(Cl)c(NC(=O)c2c(C3CCN(c4cccc(OC)c4)CC3)oc3cc([C@@H](CC(=O)O)C4CC4)ccc23)c1 [Compound 278]
  EC50: < 10 nM
  Efficacy (%): ††††

## COc1cccc(N2CCC(c3oc4cc([C@@H](CC(=O)O)C5CC5)ccc4c3C(=O)Nc3cc(C4CC4)ccc3Cl)CC2)c1 [Compound 279]
  EC50: > 500 nM
  Efficacy (%): †† (150 ≥ Efficacy (%) > 100)

## COc1cccc(N2CCC(c3oc4cc([C@@H](CC(=O)O)C5CC5)ccc4c3C(=O)Nc3cc(-c4ccccc4)ccc3Cl)CC2)c1 [Compound 280]
  EC50: 100 to 500 nM
  Efficacy (%): †† (150 ≥ Efficacy (%) > 100)

## COc1cccc(N2CCC(c3oc4cc([C@@H](CC(=O)O)C5CC5)ccc4c3C(=O)N(C)c3cc(C(F)(F)F)ccc3Cl)CC2)c1 [Compound 281]
  EC50: 100 to 500 nM
  Efficacy (%): †† (150 ≥ Efficacy (%) > 100)

## COc1cccc(N2CCC(c3oc4cc([C@@H](CC(=O)O)C5CC5)ccc4c3C(=O)Nc3cc(C#N)ccc3Cl)CC2)c1 [Compound 282]
  EC50: 10 to 100 nM
  Efficacy (%): †† (150 ≥ Efficacy (%) > 100)

## COc1cccc(N2CCC(c3oc4cc([C@@H](CC(=O)O)C5CC5)ccc4c3C(=O)Nc3cc(C(C)=O)ccc3Cl)CC2)c1 [Compound 283]
  EC50: 10 to 100 nM
  Efficacy (%): ††† (Efficacy (%) > 150)

## COc1cccc(N2CCC(c3oc4cc([C@@H](CC(=O)O)C5CC5)ccc4c3C(=O)Nc3cc(N4CCCCC4)ccc3Cl)CC2)c1 [Compound 284]
  EC50: ≤ 10 nM
  Efficacy (%): †† (150 ≥ Efficacy (%) > 100)

## COc1cccc(N2CCC(c3oc4cc([C@@H](CC(=O)O)C5CC5)ccc4c3C(=O)Nc3cc(N4CCOCC4)ccc3Cl)CC2)c1 [Compound 285]
  EC50: ≤ 10 nM
  Efficacy (%): †† (150 ≥ Efficacy (%) > 100)

## COc1cccc(N2CCC(c3oc4cc([C@@H](CC(=O)O)C5CC5)ccc4c3C(=O)Nc3cc(NC(C)=O)ccc3Cl)CC2)c1 [Compound 286]
  EC50: 100 to 500 nM
  Efficacy (%): †† (150 ≥ Efficacy (%) > 100)

## COc1cccc(N2CCC(c3oc4cc(C(CC(=O)O)C5CC5)ccc4c3C(=O)Nc3c(F)cc(F)cc3F)CC2)c1 (centres unmarked) [Compound 288]
  EC50: 100 to 500 nM
  Efficacy (%): †† (150 ≥ Efficacy (%) > 100)

## COc1cccc(N2CCC(c3oc4cc(C(CC(=O)O)C5CC5)ccc4c3C(=O)Nc3nccs3)CC2)c1 (centres unmarked) [Compound 290]
  EC50: 100 to 500 nM
  Efficacy (%): †† (150 ≥ Efficacy (%) > 100)

## COc1cccc(N2CCC(c3oc4cc(C(CC(=O)O)C5CC5)ccc4c3C(=O)Nc3ncns3)CC2)c1 (centres unmarked) [Compound 293]
  EC50: 100 to 500 nM
  Efficacy (%): †† (150 ≥ Efficacy (%) > 100)

## COc1cccc(N2CCC(c3oc4cc(C(CC(=O)O)C5CC5)ccc4c3C(=O)Nc3noc4ccccc34)CC2)c1 (centres unmarked) [Compound 296]
  EC50: 100 to 500 nM
  Efficacy (%): ††† (Efficacy (%) > 150)
